From patent publication US20220387466A1, “COMPOUNDS AND PHARMACEUTICAL COMPOSITIONS FOR PREVENTION AND/OR TREATMENT OF DYSBIOSIS AND ANTIBACTERIAL ANTIDOTES FOR MICROBIOME-PROTECTION” (priority 2019, published 2022)
Counter-ions that a name gives are not always drawn.

Key:
[1] = system: B. vulgatus; experiment: Prestwick library screen for microbiome-protective antibiotic antagonists (growth AUC z-scores); assay type: cell-based, Bacteroides vulgatus; conditions: Doxycycline 0.08 μM + 20 μM drug, z-score of normalized growth AUC, two replicates
[2] = system: B. vulgatus; experiment: Validation of microbiome-protective antagonists (concentration-dependent growth rescue); assay type: cell-based, Bacteroides vulgatus; conditions: Doxycycline 0.078 μM constant, antagonist gradient, normalized AUC >0.25 = growth rescue
Method: (§1) Validation of microbiome-protective antagonists: In a first step, the inventors kept the erythromycin/doxycycline concentration constant (0.625 μM for erythromycin, 0.078 μM (B. vulgates)/0.039 μM (B. uniformis) for doxycycline) and tested concentration gradients of the potential antagonists with ranges depending on the antagonist's solubility. Compounds were purchased from independent vendors and dissolved at 100× starting concentration in DMSO. Eight 2-fold serial dilutions were prepared in 96-well plates with each row containing a different antagonist, sufficient control DMSO wells and wells with just the respective antibiotic (‘antibiotic-only’ control). These master plates were diluted in MGAM medium (50 μl) to 2×assay concentration and 25 μl freshly prepared antibiotic solution (4× test concentration) was added. Plates were pre-reduced overnight in an anaerobic chamber and inoculated with 25 μl of overnight cultures (prepared as described under “Growth conditions”) to reach a starting OD578 of 0.01 and 1% DMSO concentration. Growth was monitored hourly for 24 h after 30 sec of linear shaking. Experiments were performed in biological triplicates. For analysis, growth curves were converted into normalized AUCs (see above). The inventors accounted for residual growth in the presence of the antibiotic by subtracting the median normalized AUCs of the ‘antibiotic-only’ control per plate.

[3] = system: B. uniformis; experiment: Prestwick library screen for microbiome-protective antibiotic antagonists (growth AUC z-scores); assay type: cell-based, Bacteroides uniformis; conditions: z-score of normalized growth AUC, two replicates
Text: The inventors reasoned that it should be possible to identify drugs that selectively antagonize the effect of antibiotics on gut microbes, while retaining activity against pathogens. Therefore, the inventors screened the Prestwick library to identify antagonizing compounds to erythromycin or doxycycline on two abundant and prevalent gut microbes, B. vulgatus and B. uniformis.
Preparation of screening plates. The Prestwick Chemical Library was purchased from Prestwick Chemical Inc. and drugs were re-arrayed, diluted and stored in 96 well format as described before. The inventors prepared drug plates (2×drug concentration) in MGAM medium and stored them at −30° C. For each experiment, drug plates were thawed, supplemented with the respective antibiotic solution (freshly prepared in MGAM) and pre-reduced in the anaerobic chamber overnight. All rearranging and aliquoting steps were done using the Biomek FXP (Beckman Coulter) system.
Inoculation and screening conditions. Strains were grown twice overnight, the second overnight culture was diluted in MGAM to reach OD578 nm 0.04 (4×the desired starting OD). 25 μl of the diluted cultures were used to inoculate wells containing 50 μl of 2× concentrated Prestwick drug and 25 μl of the 4× concentrated antibiotic using the semi-automated, 96-well multi-channel pipette epMotion 96 (Eppendorf). Each well contained 1% DMSO, 20 μM of the Prestwick drug and a species-specific antibiotic concentration that was just inhibitory for the respective strain (0.625 μM for erythromycin, 0.04 μM doxycycline for B. uniformis and 0.08 μM doxycycline for B. vulgatus). Plates were sealed with breathable membranes (Breathe-Easy®) and OD578 was measured hourly after 30 sec of linear shaking with a microplate spectrophotometer (EON, Biotek) and an automated microplate stacker (Biostack 4, Biotek) fitted inside a custom-made incubator (EMBL Mechanical Workshop). Growth curves were collected up to 24 h. For each antibiotic, each species was screen in biological duplicates. All experiments included control wells of unperturbed growth (32 wells per run) and control wells for growth in the presence of the antibiotic only (8 wells per plate).
Analysis pipeline and hit calling: All growth curves within a plate were truncated at the transition time from exponential to stationary phase and converted to normalized AUCs using in-run control wells (no drug) as described before. The inventors then calculated z-scores based on these normalized AUCs, removed replicates with 8-fold differences in z-scores to eliminate noise effects, computed mean z scores across the two replicates and selected combinations with mean z-scores >3. This selection included 19 potential antibiotic antagonists and the inventors followed up on 14 of them (7 potential erythromycin and 7 potential doxycycline antagonists in either B. vulgatus or B. uniformis—see FIG. 4) in independent experiments.

[4] = system: B. uniformis; experiment: Validation of microbiome-protective antagonists (concentration-dependent growth rescue); assay type: cell-based, Bacteroides uniformis; conditions: antagonist gradient, normalized AUC >0.25 = growth rescue
Method: as §1

[5] = system: B. vulgatus; experiment: 8x8 checkerboard assay for anaerobic commensals (antibiotic vs antagonist); assay type: cell-based, Bacteroides vulgatus
Text: Checkerboard assays for anaerobic commensals: Validated antagonists were further investigated in 8×8 checkerboard assays, where both antibiotics and antagonists were titrated against each other. Such assays were first performed for the commensals that were originally screened (i. e. B. vulgatus and B. uniformis—4 replicates) and later expanded towards 6 further gut microbes (B. caccae, B. fragilis NT, B. ovatus, B. thetaiotaomicron, P. copri, P. distasonis—2 replicates). For vertical gradients, 2-fold serial dilutions of the antagonists were prepared first in 100× in DMSO and diluted in MGAM as described above (section ‘Validation of microbiome-protective antagonists’). Horizontal antibiotic dilution series were freshly prepared in MGAM at 4× final concentration in equidistant concentration steps. Both, vertical and horizontal dilution series were combined (50 μl of the antagonist gradients (2×) and 25 μl of the antibiotic gradients (4×)) in 96 well plates. Plates were pre-reduced under anaerobic conditions overnight, inoculated with 25 μl of diluted overnight culture (at 4× starting OD) and sealed with breathable membrane (Breathe-Easy®). Bacterial growth was monitored once per hour for 24 hours after 30 sec linear shaking (Eon+Biostack 4, Biotek) under anaerobic conditions. Growth curves were converted into normalized AUCs as described using in-plate controls to define unperturbed growth.

[6] = system: species of the order Bacteroidales; experiment: Antidote vs azithromycin across seven gut Bacteroidales (Example 4); assay type: cell-based; conditions: combination with azithromycin
Method: The antidotes dicumarol (first column), benzbromarone (second column) and tolfenamic acid (third column) were tested for their efficacy in antagonizing the macrolide antibiotic azithromycin across seven prevalent and abundant gut Bacteroidales (B. vulgatus, B. fragilis NT, B. thetaiotaomicron, P. copri, B. caccae, B. ovatus, P. distasonis). […] All drug concentrations are in μM.
In particular, they aimed at testing, whether these antidotes can also protect from other macrolides such as azithromycin, a clinically more relevant antibiotic.

[7] = system: synthetic gut commensal community of seven human gut commensals; experiment: Synthetic gut commensal community growth with macrolide and antidote (Example 5); assay type: cell-based; conditions: erythromycin and azithromycin
Text: Heat maps depict area under the growth curve (AUC) of a synthetic community consisting of seven human gut commensals. Shown is the median AUC of three individual replicates. All drug concentrations are in μM.
So far, antidote effects have only been analyzed in single or pure cultures. However, the human gut microbiome is a complex community of many different bacterial taxa that is usually not adequately mimicked in monocultures.

[8] = system: E. faecalis; experiment: Antidote with macrolide on enterococci (Example 6); assay type: cell-based, Enterococcus faecalis
Text: Heat maps show median area under the growth curve (AUC) of three biologically independent replicates. […] All drug concentrations are in μM.
Here, the inventors expanded testing towards additional antidotes, and included the intestinal human pathogen Enterococcus faecalis.

[9] = system: E. faecium; experiment: Antidote with macrolide on enterococci (Example 6); assay type: cell-based
[10] = system: seven-member synthetic community including the pathogen E. faecalis; experiment: E. faecalis-containing synthetic community, community growth AUC (Example 7); assay type: cell-based
Text: (§2) Heat maps show median area under the growth curve (AUC) of the seven-member synthetic community including the pathogen E. faecalis. The numbers within the heat map represent the total number of all E. faecalis viable cells for each erythromycin-antidote combination as determined by enumerating of E. faecalis colony forming units after plating on selective medium. All drug concentrations are in μM. n. d.=not detectable.
(§3) The inventors exposed synthetic communities that contained the intestinal gut pathogen E. faecalis to erythromycin, and evaluated rescue of gut commensals and simultaneous killing of the pathogen in the presence of antidotes.

[11] = system: E. faecalis; experiment: E. faecalis-containing synthetic community, E. faecalis CFU on selective medium (Example 7); assay type: cell-based, Enterococcus faecalis
Text: as §2, §3

[12] = Doxycycline 0.04 μM + 20 μM drug
[13] = Erythromycin 0.625 μM + 20 μM drug
[14] = erythromycin 1.15 μM + 40 μM dicumarol or 20 μM benzbromarone

## CCC(Cc1c(I)cc(I)c(N)c1I)C(=O)O (stereo not shown) [Iopanoic acid]
[1]
  Mean z-score: 5.698
[2]
  Validation: TRUE

## Cc1ccc(-c2cc(C(F)(F)F)nn2-c2ccc(S(N)(=O)=O)cc2)cc1 [Celecoxib]
[3]; [12]
  Mean z-score: 3.275

## CCCCCN(CCCCC)C(=O)C(CCC(=O)O)NC(=O)c1ccc(Cl)c(Cl)c1 (stereo not shown) [Lorglumide sodium salt]
[3]; [13]
  Mean z-score: 6.106
[4]; Erythromycin 0.625 μM constant
  Validation: TRUE

## O=C(O)Cc1cc(I)c(Oc2ccc(O)c(I)c2)c(I)c1 [3,3′,5-triiodothyroacetic acid]
[3]; [12]
  Mean z-score: 4.333
[4]; Doxycycline 0.039 μM constant
  Validation: TRUE

## Cc1ccc(Cl)c(Nc2ccccc2C(=O)O)c1Cl [Meclofenamic acid sodium salt monohydrate]
[1]
  Mean z-score: 3.010

## CCc1oc2ccccc2c1C(=O)c1cc(Br)c(O)c(Br)c1 [Benzbromarone]
[3]; [13]
  Mean z-score: 6.034
[4]; Erythromycin 0.625 μM constant
  Validation: FALSE
[5]; combination with erythromycin
  rescue of B. vulgatus growth from erythromycin: can rescue the growth
[6]
  protection of Bacteroidales species from azithromycin: can be Protected
[7]
  protection (growth rescue) of synthetic gut commensal community from macrolide antibiotics: can be Protected
[8]
  interaction with antibacterial effects of erythromycin/azithromycin: synergized
  rescue from erythromycin or azithromycin treatment: Neither dicumarol nor benzbromarone or tolfenamic acid could rescue
[9]
  interaction with antibacterial effects of erythromycin/azithromycin: synergized
  rescue from erythromycin or azithromycin treatment: Neither dicumarol nor benzbromarone or tolfenamic acid could rescue
[10]; [14]
  community growth (AUC): the community is rescued
[10]; erythromycin + antidote
  rescue of the community despite erythromycin treatment: rescue of the community
[11]; [14]
  E. faecalis counts: drop/are still found at below the detection limit
[11]; erythromycin + antidote
  E. faecalis cells in community under erythromycin + antidote: efficiently inhibited

## CCCCc1nc(Cl)c(CO)n1Cc1ccc(-c2ccccc2-c2nn[nH]n2)cc1 [Losartan]
[3]; [12]
  Mean z-score: 3.421
[4]; Doxycycline 0.039 μM constant
  Validation: FALSE

## CC[C@H](c1ccc(O)cc1)[C@@H](CC)c1ccc(O)cc1 [Hexestrol]
[3]; [13]
  Mean z-score: 9.630
[4]; Erythromycin 0.625 μM constant
  Validation: TRUE

## CC(C)c1c(CN(C)C(C)Cc2ccccc2)n(C)n(-c2ccccc2)c1=O (stereo not shown) [Famprofazone]
[3]; [13]
  Mean z-score: 7.832
[4]; Erythromycin 0.625 μM constant
  Validation: FALSE

## O=C1Nc2ccc(Cl)cc2[C@@](C#CC2CC2)(C(F)(F)F)O1 [Efavirenz]
[1]
  Mean z-score: 3.138

## CC/C(=C(/CC)c1ccc(O)cc1)c1ccc(O)cc1 [Diethylstilbestrol]
[1]
  Mean z-score: 3.296
[3]; [13]
  Mean z-score: 9.258
[4]; Erythromycin 0.625 μM constant
  Validation: TRUE

## N#CC(c1ccc(Cl)cc1)c1c(Cl)cc(-n2ncc(=O)[nH]c2=O)cc1Cl (stereo not shown) [Diclazuril]
[1]
  Mean z-score: 3.117

## Oc1cc(Cl)ccc1Oc1ccc(Cl)cc1Cl [Triclosan]
[3]; [12]
  Mean z-score: 3.066
[4]; Doxycycline 0.039 μM constant
  Validation: FALSE

## O=C(O)c1cc(-c2ccc(F)cc2F)ccc1O [Diflunisal]
[1]
  Mean z-score: 3.265
[2]
  Validation: TRUE
[5]; combination with doxycycline
  rescue of B. vulgatus growth from doxycycline: rescued
